Results: PubChem BioAssay AID2019 (NMMLSC, 2009)

Target: Cell division control protein 42 homolog (Homo sapiens) (UniProt P60953)
Assay: inhibition of fluorescent GTP binding to wildtype Cdc42 – biochemical, pyrazoline analogs, multiplex bead flow cytometry, Ki, SAR follow-up (AID 2019)
Settings: bead-based flow cytometry, Bodipy-FL-GTP binding; Ki calculated from EC50

Sequence of Cell division control protein 42 homolog (Homo sapiens) (P60953 whole entry, looked up): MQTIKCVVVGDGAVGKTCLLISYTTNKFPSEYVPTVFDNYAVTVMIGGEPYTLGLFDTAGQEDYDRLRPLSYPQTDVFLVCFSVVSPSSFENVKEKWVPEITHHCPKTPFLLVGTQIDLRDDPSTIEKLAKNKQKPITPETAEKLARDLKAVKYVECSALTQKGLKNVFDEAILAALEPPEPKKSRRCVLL

Compound	Ki [nM]
NS(=O)(=O)c1ccc(N2N=C(c3ccccc3)CC2c2ccccc2Cl)cc1 (stereo unspecified)	1530
COc1ccc(C2CC(c3ccccc3OC)=NN2c2ccc(S(N)(=O)=O)cc2)cc1 (stereo unspecified)	1270
NS(=O)(=O)c1ccc(N2N=C(c3ccc(Cl)cc3)CC2c2ccccc2)cc1 (stereo unspecified)	700
Cc1cccc(C2CC(c3ccccc3)=NN2c2ccc(S(N)(=O)=O)cc2)c1 (stereo unspecified)	1060
COc1ccc(C2CC(c3cccc(Cl)c3)=NN2c2ccc(S(N)(=O)=O)cc2)cc1 (stereo unspecified)	270
COc1ccc(C2CC(c3cccnc3)=NN2c2ccc(S(N)(=O)=O)cc2)cc1 (stereo unspecified)	2010
COc1ccc(C2CC(c3cccc(Br)c3)=NN2c2ccc(S(N)(=O)=O)cc2)cc1 (stereo unspecified)	440
COc1ccc(C2CC(c3ccccc3)=NN2c2ccc(S(N)(=O)=O)cc2)cc1OC (stereo unspecified)	1210
Cc1ccccc1C1CC(c2ccccc2)=NN1c1ccc(S(N)(=O)=O)cc1 (stereo unspecified)	3510
COc1ccc(C2CC(c3ccc(C)cc3)=NN2c2ccc(S(N)(=O)=O)cc2)cc1 (stereo unspecified)	470
COc1ccc(C2CC(c3cccc(F)c3)=NN2c2ccc(S(N)(=O)=O)cc2)cc1 (stereo unspecified)	610
COc1ccc(C2CC(c3ccc(F)cc3)=NN2c2ccc(S(N)(=O)=O)cc2)cc1 (stereo unspecified)	900
COc1ccc(C2CC(c3ccccc3C)=NN2c2ccc(S(N)(=O)=O)cc2)cc1 (stereo unspecified)	870
COc1ccc(C2CC(c3ccccc3Br)=NN2c2ccc(S(N)(=O)=O)cc2)cc1 (stereo unspecified)	710
COc1ccc(C2CC(c3ccccc3F)=NN2c2ccc(S(N)(=O)=O)cc2)cc1 (stereo unspecified)	590
COc1ccc(-c2cc(-c3ccccc3)nn2-c2ccc(S(N)(=O)=O)cc2)cc1	1070
COc1ccc(C2CC(c3cccc(C)c3)=NN2c2ccc(S(N)(=O)=O)cc2)cc1 (stereo unspecified)	800

Other lines, results leading:

Ki [nM]	Compound
50	O=S(=O)(c1ccc(N2N=C(c3ccccc3)CC2c2ccccc2)cc1)C(F)F (stereo unspecified)
7280	COc1ccc(C2=NN(c3ccccc3)C(c3ccccc3C(F)(F)F)C2)cc1 (stereo unspecified)
4450	COc1ccc(C2CC(c3ccc(F)cc3)=NN2c2cccc(F)c2)cc1OC (stereo unspecified)
660	COc1ccc(C2CC(c3cccc(C(F)(F)F)c3)=NN2c2ccc(S(N)(=O)=O)cc2)cc1 (stereo unspecified)
550	COc1ccc(C2CC(c3ccccc3Cl)=NN2c2ccc(S(N)(=O)=O)cc2)cc1 (stereo unspecified)
630	COc1ccc(C2CC(c3ccc(Br)cc3)=NN2c2ccc(S(N)(=O)=O)cc2)cc1 (stereo unspecified)
4750	COc1ccccc1C1CC(c2ccccc2)=NN1c1ccc(S(N)(=O)=O)cc1 (stereo unspecified)
1010	COc1cccc(C2CC(c3ccccc3)=NN2c2ccc(S(N)(=O)=O)cc2)c1 (stereo unspecified)
490	COc1ccc(C2CC(c3ccc(Cl)cc3)=NN2c2ccc(S(N)(=O)=O)cc2)cc1 (stereo unspecified)
710	COc1ccc(C2CC(c3ccc(N(C)C)cc3)=NN2c2ccc(S(N)(=O)=O)cc2)cc1 (stereo unspecified)
1540	COc1ccc(C2CC(c3ccsc3)=NN2c2ccc(S(N)(=O)=O)cc2)cc1 (stereo unspecified)
700	NS(=O)(=O)c1ccc(N2N=C(c3ccccc3)CC2c2cccc(Br)c2)cc1 (stereo unspecified)
310	COc1ccc(C2CC(c3cccc(OC)c3)=NN2c2ccc(S(N)(=O)=O)cc2)cc1 (stereo unspecified)
700	NS(=O)(=O)c1ccc(N2N=C(c3ccccc3)CC2c2cccc(Cl)c2)cc1 (stereo unspecified)
540	COc1ccc(C2=NN(c3ccc(S(N)(=O)=O)cc3)C(c3ccc(OC)cc3)C2)cc1 (stereo unspecified)
1050	Cc1ccc(C2CC(c3ccccc3)=NN2c2ccc(S(N)(=O)=O)cc2)cc1 (stereo unspecified)
620	COc1ccc(C2CC(c3cccs3)=NN2c2ccc(S(N)(=O)=O)cc2)cc1 (stereo unspecified)
580	NS(=O)(=O)c1ccc(N2N=C(c3ccccc3)CC2c2ccc(Cl)cc2)cc1 (stereo unspecified)
230	NS(=O)(=O)c1ccc(N2N=C(c3ccccc3)CC2c2ccc(Br)cc2)cc1 (stereo unspecified)
